From patent EP0819136B1, “MDP DERIVATIVES AND CONJUGATES HAVING HAEMATOPOIETIC FUNCTION STIMULATING ACTIVITY, AND COMPOSITIONS CONTAINING SAME” (VACSYN S.A., priority 1995, dated 1996)

Experiments:
[1] = test system: leucocytes et de neutrophiles circulants; experiment: Leucocyte, neutrophil and myelocyte counts after oral Muradimétide with non-myelotoxic or myelotoxic i.v. AZT (Example 8, figures 1-3); type: in vivo, souris Swiss femelles; details: Muradimétide 25 mg/kg p.o. 4 h before AZT 5 or 40 mg/kg i.v., days 0-3; time after start of treatment
Method: La figure 1 montre l'effet d'un traitement per os des souris avec du Muradimétide en association avec des doses d'AZT non myélotoxiques (5 mg par kg) (Fig 1A) ou myélotoxiques (40mg par kg) (Fig 1B) sur le changement des leucocytes circulants.
La figure 2 représente le même type de courbe sur la numération des neutrophiles; la figure 2A représente une expérience réalisée avec une dose non myélotoxique d'AZT (5 mg par kg) et la figure 2B avec une dose myélotoxique d'AZT (40 mg par kg).
La figure 3 représente le même type de courbe sur la numération des myélocytes. La figure 3A se rapporte à une dose non myélotoxique d'AZT (5mg/kg) et la figure 3B à une dose myélotoxique (40 mg/kg).
Cet effet est indiqué sur les figures 1 et 2, les figures 1A et 2A représentant une dose non myélotoxique d'AZT et les figures 1B et 2B représentant une dose myélotoxique d'AZT.
Dans cette expérience, des souris Swiss femelles ont été injectées par voie intra-veineuse avec de l'AZT à la dose de 5 ou de 40 mg par kg aux jours 0, 1, 2 et 3. Sur chacun des 4 jours et 4 heures avant l'administration d'AZT, des groupes de souris constitués de 5 individus ont reçu per os soit du tampon soit du Muradimétide à la dose de 25 mg par kg.
Les comptages cellulaires sont effectués aux jours 0, 1, 2, 3, 4 et 7. […]

[2] = test system: neutrophiles circulants, leucocytes circulants, monocytes circulants, myélocytes circulants; experiment: Comparison of Muradimétide and GM-CSF on circulating cell counts after i.v. AZT (Example 9, figures 4-7); type: in vivo, souris Swiss femelles; details: AZT 40 mg/kg i.v. days 0-3; Muradimétide 25 mg/kg or mGM-CSF 125 µg/kg i.v. 4 h before AZT
Source text: La figure 4 représente les effets comparés du Muradimétide et du rmGM-CSF (recombinant mouse GM-CSF) sur la numération des neutrophiles circulants après administration d'AZT.
La figure 5 représente la même comparaison sur la numération des leucocytes circulants.
La figure 6 représente la même comparaison sur la numération de monocytes circulants.
La figure 7 représente la même comparaison sur la numération des myélocytes circulants.
Lorsque les souris ayant reçu un traitement par l'AZT sont traitées par du GM-SCF dans les mêmes conditions que celles utilisées pour le Muradimétide, les comptages de leucocytes et de neutrophiles ne présentent pas d'augmentation contrairement à ce qui est observé lorsque la combinaison AZT-Muradimétide est utilisée. Par contre, on observe une augmentation du nombre des monocytes. Les figures 4, 5, 6, et 7 indiquent l'effet d'un traitement des souris avec du Muradimétide ou avec du mGM-CSF sur les changements respectivement dans les neutrophiles circulants, dans les leucocytes circulants ou dans les monocytes circulants ou dans les myélocytes circulants après une administration intraveineuse d'AZT.
Les souris Swiss femelles ont été traitées par voie intra-veineuse avec 40 mg par kg d'AZT aux jours 0, 1, 2 et 3. […]

myélocytes circulants = experiment: Circulating myelocytes during two weeks of oral treatment, 4 days per week (Example 4, figure 11); type: in vivo, souris; details: p.o. days 0, 1, 2, 3 and 7, 8, 9, 10; MDM 25 mg/kg, AZT 50 mg/kg or both
Method: La figure 11 représente l'effet d'un traitement per os de souris pendant deux semaines consécutives (4 jours par semaine) avec l'AZT, le Muradimétide ou le mélange des deux sur le nombre des myélocytes circulants.
La figure 11 montre l'effet d'un traitement par le MDM à 25 mg/kg (X), de l'AZT à 50 mg/kg (O) et du mélange des deux (□) sur le comptage des myélocytes de souris traitées pendant 2 semaines aux jours 0, 1, 2, 3 de la première semaine et 7, 8, 9, 10 de la deuxième semaine. […] Si l'effet est surtout marqué au niveau de la première semaine, cela montre que le traitement nécessite un certain espace de temps entre les différents cycles de traitement et que des traitements répétés pourraient, le cas échéant, être utiles.

[3] = test system: globules rouges et les plaquettes; experiment: Red blood cell and platelet counts after 7 days of oral AZT, Muradimétide or both (Example 3, figures 9 and 10); type: in vivo, souris femelles BALB/c; details: p.o. once daily for 7 days: 100 mg/kg AZT, 50 mg/kg muradimétide, or both simultaneously; counts up to day 10
Source text: La figure 9 représente l'effet du traitement per os de souris BALB/c pendant 7 jours consécutifs avec de l'AZT, du Muradimétide (MDM) ou un mélange de ceux-ci sur la numération plaquettaire.
La figure 10 représente l'effet du traitement per os de souris BALB/c pendant 7 jours consécutifs avec de l'AZT, du Muradimétide (MDM) ou un mélange de ceux-ci sur le nombre des globules rouges.
L'effet d'un traitement de 7 jours sur le nombre de globules rouges et de plaquettes est indiqué dans les figures 9 et 10 respectivement. Les numérations sont représentées en pourcentage de celles obtenues au jour 0. Des souris femelles BALB/c (5 par groupe) sont traitées une fois par jour pendant 7 jours consécutifs par 100 mg/kg d'AZT (Δ), 50 mg/kg de muradimétide (D) ou simultanément par 100 mg/kg d'AZT et 50 mg/kg de muradimétide (O). Les comptages de plaquettes ou de globules rouges ont été réalisés au jour 0 et jusqu'à 10 jours suivant le début du traitement. […] La tendance à l'augmentation de leur nombre apparaît entre les jours 4 et 5. En revanche, l'anémie qui pourrait être observée dans les groupes traités pourrait être due aux saignements répétés; néanmoins la vitesse et l'importance de l'anémie est grandement réduite chez les animaux traités avec le mélange des deux produits en comparaison avec celui observé dans le groupe traité par l'AZT seul. […]

COC(=O)CC[C@@H](NC(=O)[C@H](C)NC(=O)[C@@H](C)O[C@H]1[C@H](O)[C@@H](CO)OC(O)[C@@H]1NC(C)=O)C(=O)OC (stereo partly drawn) [Muradimétide, Nac-Mur-L-Ala-D-Glu-[OCH3]-OCH3]
temps de l'effet maximum (leucocytes, neutrophiles, myélocytes) [1]: 4 jours
comptages de leucocytes et de neutrophiles [2]: effet nettement marqué
élévation / mobilisation des CSH dans le sang (myélocytes circulants) [2]: très forte élévation
effet sur la mobilisation des CHS (comptage des myélocytes) (myélocytes circulants): effet significatif
toxicité sur les plaquettes [3]: Aucune toxicité
